Earlier results on 1 compound are cited in patent publication US9890151B2, “3,5-dichloro,4-(3,4-(cyclo-)alkoxyphenyl)- 2-carbonyloxy)ethyl)pyridine derivatives as PDE-4 inhibitors” (CHIESI FARMACEUTICI S.p.A., priority 2014, dated 2018).

The mark [1] stands for this setting: patients with severe disease who have frequent exacerbations and mucus hypersecretion.

For the compound `O=C(Nc1c(Cl)cncc1Cl)c1ccc(OC(F)F)c(OCC2CC2)c1` [roflumilast], for the setting “COPD patients, oral roflumilast given over 4 weeks”, the “reduction of the numbers of neutrophils in sputum” value was 36%. Under setting [1], the “improvement of FEV 1” value is “approximately 50 mL” and the reduction of exacerbation entry was “about 15%”.
